{"source": "patent US11512054B2", "about": "“Pesticidal compounds” (BASF SE, priority 2017, dated 2022)", "type_in_all_cases": "in vivo", "key": {"[1]": {"system": "Diamond Back Moth (Plutella xylostella)", "assay": "Action on diamond back moth, cabbage leaf dip", "settings": "foliar, 3rd instar larvae, 72 hours after treatment, read-out: mortality in comparison with untreated controls", "procedure": "The active compound is dissolved at the desired concentration in a mixture of 1:1 (v/v) distilled water:acetone. Surfactant (Kinetic® HV) is added at a rate of 0.01% (v/v). The test solution is prepared at the day of use.\nLeaves of cabbage were dipped in test solution and air-dried. Treated leaves were placed in petri dishes lined with moist filter paper and inoculated with ten 3rd instar larvae. Mortality was recorded 72 hours after treatment. Feeding damages were also recorded using a scale of 0-100%."}, "[2]": {"system": "Silverleaf Whitefly (Bemisia argentifoli) (Adults)", "assay": "Action on silverleaf whitefly adults, sprayed cotton plants", "settings": "Bemisia argentifolii, 72 h, 3 days after treatment, read-out: mortality in comparison with untreated controls", "procedure": "(§1) The active compounds were formulated by a Tecan liquid handler in 100% cyclohexanone as a 10,000 ppm solution supplied in tubes. The 10,000 ppm solution was serially diluted in 100% cyclohexanone to make interim solutions. These served as stock solutions for which final dilutions were made by the Tecan in 50% acetone:50% water (v/v) into 5 or 10 ml glass vials. A nonionic surfactant (Kinetic®) was included in the solution at a volume of 0.01% (v/v). The vials were then inserted into an automated electrostatic sprayer equipped with an atomizing nozzle for application to plants/insects.\nCotton plants at the cotyledon stage (one plant per pot) were sprayed by an automated electrostatic plant sprayer equipped with an atomizing spray nozzle. The plants were dried in the sprayer fume hood and then removed from the sprayer. Each pot was placed into a plastic cup and about 10 to 12 whitefly adults (approximately 3-5 days old) were introduced. The insects were collected using an aspirator and a nontoxic Tygon® tubing connected to a barrier pipette tip. The tip, containing the collected insects, was then gently inserted into the soil containing the treated plant, allowing insects to crawl out of the tip to reach the foliage for feeding. Cups were covered with a reusable screened lid. Test plants were maintained in a growth room at about 25° C. and about 20-40% relative humidity for 3 days, avoiding direct exposure to fluorescent light (24 hour photoperiod) to prevent trapping of heat inside the cup. Mortality was assessed 3 days after treatment, compared to untreated control plants."}, "[3]": {"system": "Orchid Thrips (Dichromothrips corbetti)", "assay": "Action on orchid thrips, floral-immersion technique", "settings": "adult thrips, 72 hours after treatment, read-out: mortality in comparison with untreated controls", "procedure": "Dichromothrips corbetti adults used for bioassay were obtained from a colony maintained continuously under laboratory conditions. For testing purposes, the test compound is diluted in a 1:1 mixture of acetone:water (vol:vol), plus Kinetic® HV at a rate of 0.01% v/v.\nThrips potency of each compound was evaluated by using a floral-immersion technique. All petals of individual, intact orchid flowers were dipped into treatment solution and allowed to dry in Petri dishes. Treated petals were placed into individual re-sealable plastic along with about 20 adult thrips. All test arenas were held under continuous light and a temperature of about 28° C. for duration of the assay. After 3 days, the numbers of live thrips were counted on each petal. The percent mortality was recorded 72 hours after treatment."}, "[4]": {"system": "Southern Armyworm (Spodoptera eridania), 2nd Instar Larvae", "assay": "Action on southern armyworm, sprayed lima bean plants", "settings": "96 h, 2nd instar larvae on lima bean, 4 days after treatment, read-out: mortality in comparison with untreated controls", "procedure": "as §1, with “into 10” for “into 5”, “or 20” for “or 10”\nLima bean plants (variety Sieva) were grown 2 plants to a pot and selected for treatment at the 1st true leaf stage. Test solutions were sprayed onto the foliage by an automated electrostatic plant sprayer equipped with an atomizing spray nozzle. The plants were dried in the sprayer fume hood and then removed from the sprayer. Each pot was placed into perforated plastic bags with a zip closure. About 10 to 11 armyworm larvae were placed into the bag and the bags zipped closed. Test plants were maintained in a growth room at about 25° C. and about 20-40% relative humidity for 4 days, avoiding direct exposure to fluorescent light (24 hour photoperiod) to prevent trapping of heat inside the bags. Mortality and reduced feeding were assessed 4 days after treatment, compared to untreated control plants."}, "[5]": {"system": "yellow fever mosquito (Aedes aegypti)", "assay": "whole plant or invertebrate", "settings": "48 h, larval mortality visually assessed after 2 days, read-out: mortality in comparison with untreated controls", "procedure": "For evaluating control of yellow fever mosquito (Aedes aegypti) the test unit consisted of 96-well-microtiter plates containing 200 μl of tap water per well and 5-15 freshly hatched A. aegypti larvae.\nThe active compounds or mixtures were formulated using a solution containing 75% (v/v) water and 25% (v/v) DMSO. Different concentrations of formulated compounds or mixtures were sprayed onto the insect diet at 2.5 μl, using a custom built micro atomizer, at two replications. For experimental mixtures in these tests identical volumes of both mixing partners at the desired concentrations respectively, were mixed together.\nAfter application, microtiter plates were incubated at 28±1° C., 80±5% RH for 2 days. Larval mortality was then visually assessed."}, "[6]": {"system": "tobacco budworm (Heliothis virescens)", "assay": "Action on tobacco budworm, eggs on insect diet in 96-well microtiter plates", "settings": "120 h, egg and larval mortality after 5 days, read-out: mortality in comparison with untreated controls", "procedure": "For evaluating control of tobacco budworm (Heliothis virescens) the test unit consisted of 96-well-microtiter plates containing an insect diet and 15-25 H. virescens eggs.\nThe compounds were formulated using a solution containing 75% v/v water and 25% v/v DMSO. Different concentrations of formulated compounds were sprayed onto the insect diet at 10 μl, using a custom built micro atomizer, at two replications.\nAfter application, microtiter plates were incubated at about 28+1° C. and about 80+5% relative humidity for 5 days. Egg and larval mortality was then visually assessed."}, "[7]": {"system": "boll weevil (Anthonomus grandis)", "assay": "Action on boll weevil, eggs on insect diet in 96-well microtiter plates", "settings": "120 h, egg and larval mortality after 5 days, read-out: mortality in comparison with untreated controls", "procedure": "For evaluating control of boll weevil (Anthonomus grandis) the test unit consisted of 96-well-microtiter plates containing an insect diet and 5-10 A. grandis eggs.\nThe compounds were formulated using a solution containing 75% (v/v) water and 25% (v/v) DMSO. Different concentrations of formulated compounds were sprayed onto the insect diet at 5 μl, using a custom built micro atomizer, at two replications.\nAfter application, microtiter plates were incubated at about 25+1° C. and about 75+5% relative humidity for 5 days. Egg and larval mortality was then visually assessed."}}}
{"smiles": "CC(C)c1ccccc1NC(=S)N/N=C/c1ccc2c(C(=N)Nc3ccc(OC(F)(F)F)cc3)nn(C)c2c1", "note": "[Example C-1, 1-(2-isopropylphenyl)-3-[(E)-[1-methyl-3-[N-[4(trifluoromethoxy)phenyl]carbamimidoyl]indazol-6-yl]methyleneamino]thiourea]", "values": [{"measurement": "mortality at 500 ppm", "setting": "[1]", "value": "≥ 75", "unit": "%"}, {"measurement": "mortality at 300 ppm", "setting": "[2]", "value": "≥ 75", "unit": "%"}, {"measurement": "mortality at 500 ppm", "setting": "[3]", "value": "≥ 75", "unit": "%"}, {"measurement": "mortality at 300 ppm", "setting": "[4]", "value": "≥ 75", "unit": "%"}, {"measurement": "mortality at 800 ppm", "setting": "[5]", "value": "≥ 50", "unit": "%"}, {"measurement": "mortality at 800 ppm", "setting": "[6]", "value": "≥ 75", "unit": "%"}, {"measurement": "mortality at 800 ppm", "setting": "[7]", "value": "≥ 75", "unit": "%"}]}
{"smiles": "CC(C)c1ccccc1N1C(=O)CS/C1=N/N=C/c1ccc2c(C(=N)Nc3ccc(OC(F)(F)F)cc3)nn(C)c2c1", "note": "[Example C-2, 6-[(E)-[(E)-[3-(2-isopropylphenyl)-4-oxo-thiazolidin-2-ylidene]hydrazono]methyl]-1-methyl-N-[4-(trifluoromethoxy)phenyl]indazole-3-carboxamidine]", "values": [{"measurement": "mortality at 500 ppm", "setting": "[1]", "value": "≥ 75", "unit": "%"}, {"measurement": "mortality at 300 ppm", "setting": "[2]", "value": "≥ 75", "unit": "%"}, {"measurement": "mortality at 500 ppm", "setting": "[3]", "value": "≥ 75", "unit": "%"}, {"measurement": "mortality at 300 ppm", "setting": "[4]", "value": "≥ 75", "unit": "%"}, {"measurement": "mortality at 800 ppm", "setting": "[5]", "value": "≥ 50", "unit": "%"}, {"measurement": "mortality at 800 ppm", "setting": "[6]", "value": "≥ 75", "unit": "%"}, {"measurement": "mortality at 800 ppm", "setting": "[7]", "value": "≥ 75", "unit": "%"}]}
{"smiles": "CC(C)c1ccccc1/N=C1\\SCC(=O)N1/N=C/c1ccc2c(C(N)=Nc3ccc(OC(F)(F)F)cc3)nsc2c1", "note": "[Example C-28, 6-[(E)-[(2Z)-2-(2-isopropylphenyl)imino-4-oxo-thiazolidin-3-yl]iminomethyl]-N′-[4-(trifluoromethoxy)phenyl]-1,2-benzothiazole-3-carboxamidine]", "values": [{"measurement": "mortality at 500 ppm", "setting": "[1]", "value": "≥ 75", "unit": "%"}, {"measurement": "mortality at 300 ppm", "setting": "[2]", "value": "≥ 75", "unit": "%"}, {"measurement": "mortality at 500 ppm", "setting": "[3]", "value": "≥ 75", "unit": "%"}, {"measurement": "mortality at 300 ppm", "setting": "[4]", "value": "≥ 75", "unit": "%"}, {"measurement": "mortality at 800 ppm", "setting": "[5]", "value": "≥ 50", "unit": "%"}, {"measurement": "mortality at 800 ppm", "setting": "[6]", "value": "≥ 75", "unit": "%"}, {"measurement": "mortality at 800 ppm", "setting": "[7]", "value": "≥ 75", "unit": "%"}]}
{"smiles": "CSC(=N/N=C/c1ccc2c(C(=N)Nc3ccc(OC(F)(F)F)cc3)nn(C)c2c1)Nc1ccccc1C(C)C", "note": "[Example C-35, 1-(2-isopropylphenyl)-2-methyl-3-[(E)-[1-methyl-3-[N-[4-(trifluoromethoxy)phenyl]carbamimidoyl]indazol-6-yl]methyleneamino]isothiourea]", "values": [{"measurement": "mortality at 500 ppm", "setting": "[1]", "value": "≥ 75", "unit": "%"}, {"measurement": "mortality at 300 ppm", "setting": "[2]", "value": "≥ 75", "unit": "%"}, {"measurement": "mortality at 500 ppm", "setting": "[3]", "value": "≥ 75", "unit": "%"}, {"measurement": "mortality at 300 ppm", "setting": "[4]", "value": "≥ 75", "unit": "%"}, {"measurement": "mortality at 800 ppm", "setting": "[5]", "value": "≥ 50", "unit": "%"}, {"measurement": "mortality at 800 ppm", "setting": "[6]", "value": "≥ 75", "unit": "%"}, {"measurement": "mortality at 800 ppm", "setting": "[7]", "value": "≥ 75", "unit": "%"}]}
{"smiles": "CC(C)c1ccccc1NC(=S)N/N=C/c1ccc2c(NC(=N)c3ccc(OC(F)(F)F)cc3)nn(C)c2c1", "note": "[Example C-38, 1-(2-isopropylphenyl)-3-[(E)-[1-methyl-3-[[4-(trifluoromethoxy)benzenecarboximidoyl]amino]indazol-6-yl]methyleneamino]thiourea]", "values": [{"measurement": "mortality at 500 ppm", "setting": "[1]", "value": "≥ 75", "unit": "%"}, {"measurement": "mortality at 300 ppm", "setting": "[2]", "value": "≥ 75", "unit": "%"}, {"measurement": "mortality at 500 ppm", "setting": "[3]", "value": "≥ 75", "unit": "%"}, {"measurement": "mortality at 300 ppm", "setting": "[4]", "value": "≥ 75", "unit": "%"}, {"measurement": "mortality at 800 ppm", "setting": "[5]", "value": "≥ 50", "unit": "%"}, {"measurement": "mortality at 800 ppm", "setting": "[6]", "value": "≥ 75", "unit": "%"}, {"measurement": "mortality at 800 ppm", "setting": "[7]", "value": "≥ 75", "unit": "%"}]}
{"smiles": "CC(C)c1ccccc1N1C(=O)CS/C1=N\\N=C\\c1ccc2c(NC(=N)c3ccc(OC(F)(F)F)cc3)nn(C)c2c1", "note": "[Example C-39, N-[6-[(E)-[(Z)-[3-(2-isopropylphenyl)-4-oxo-thiazolidin-2-ylidene]hydrazono]methyl]-1-methyl-indazol-3-yl]-4-(trifluoromethoxy)benzamidine]", "values": [{"measurement": "mortality at 500 ppm", "setting": "[1]", "value": "≥ 75", "unit": "%"}, {"measurement": "mortality at 300 ppm", "setting": "[2]", "value": "≥ 75", "unit": "%"}, {"measurement": "mortality at 500 ppm", "setting": "[3]", "value": "≥ 75", "unit": "%"}, {"measurement": "mortality at 300 ppm", "setting": "[4]", "value": "≥ 75", "unit": "%"}, {"measurement": "mortality at 800 ppm", "setting": "[5]", "value": "≥ 50", "unit": "%"}, {"measurement": "mortality at 800 ppm", "setting": "[6]", "value": "≥ 75", "unit": "%"}, {"measurement": "mortality at 800 ppm", "setting": "[7]", "value": "≥ 75", "unit": "%"}]}
